Test results as given in patent publication US20080033026A1, “Antimicrobial compositions, methods and systems” (priority 2006, published 2008).

Experiments:
[1] = system: Candida albicans (ATCC 10231); assay: Time-kill determination; assay type: cell-based
Experimental: The assessment of efficacy of 9-decenoic acid against a spectrum of microorganisms was determined using the American Society for Testing and Materials (ASTM) procedure entitled “Standard Test Method for the Assessment of Microbiocidal Activity of Test Materials Using a Time-Kill Procedure,” October 1998. This procedure incorporates the recommendations described in the “Manual of Clinical Microbiology,” 5th ed., edited by A. B. Balows et al., ASM, Washington, and is directed by the Federal Register, June 1994.
Challenge organisms were prepared as follows. Cultures of the following organisms were obtained: Staphylococcus aureus (ATCC 6538), Pseudomonas aeruginosa (ATCC 15442), Staphylococcus epidermidis (ATCC 12228), Klebsiella pneumoniae (ATCC 4352), Escherichia coli 0157:H7 (ATCC 43895) and Candida albicans (ATCC 10231). The stock cultures were transferred to sterile tubes and sterile tryptic soy broth (TSB) was added to the cultures. The mixture was incubated for 18-24 hours at 37° C. (±2° C.). A portion of this culture was then transferred onto TSA plates and incubated for 18-24 hours at 37° C. (±2° C.). The plates were removed from incubation and the bacterial growth was washed from the agar surface using Butterfield's Phosphate Buffered Dilution Water (PBDW).
The bacterial suspension was adjusted to contain approximately 10^8 Colony Forming Units (CFU) per ml with PBDW. The concentration was adjusted to an optical density (OD) of 0.4-0.5 (versus a PBDW blank) at 620 nm in a UV-Vis spectrophotometer, and this optical density gave approximately 10^8 colony forming units per milliliter (cfu/ml). The standardized suspension was stored under appropriate conditions until it was used as the challenge inoculum.
Concentrated 9-decenoic acid (97%) was diluted in filter sterilized isopropanol to yield a 25,000 ppm stock solution. Subsequent dilutions to the 9-decenoic acid stock solutions were made with sterile Deionized Water (DI) to achieve concentrations of 0.1%, 0.05%, 0.01% and 0.001%. The pH was determined for each dilution; pH values ranged from 4.4-4.1. Additionally, 9-decenoic acid stock solution was adjusted to pH 7 with 1 N NaOH and serially diluted with sterile DI to achieve concentrations of 1%, 0.5%, 0.2%, 0.1%, 0.05% and 0.0025%. In addition, 9-decenoic acid stock solution was combined with Triclosan™ (obtained from Ciba Specialty Chemical Corporation, under the tradename Irgasan DP 300™) in various ratios, as indicated in Table 8. The pH of the combined solution was 7.
Compliant with the ASTM procedure cited, for each challenge microorganism a 9.9 ml aliquot of the prepared 9-decenoic acid suspension was added to a sterile tube. A 0.1 ml aliquot of the standardized inoculum was added to the 9-decenoic acid solution representing the start of the test exposure. The inoculated 9-decenoic acid solution was immediately mixed thoroughly. The inoculated suspension was held at room temperature for 0.5, 2, 5, 7 and 10-minute exposure times for tests run at pH level of approximately 4. The pH 7 tests were held at room temperature for 0.5 and 2 minutes.
At each exposure sample time, a 1.0 ml aliquot of the inoculated 9-decenoic acid suspension was transferred to 9.0 ml of D/E Neutralizing Broth. Additional ten-fold serial dilutions were made in PBDW and plated in duplicate on TSA. All plates were incubated for 48 hours at 37° C. (±2° C.) and visually examined for growth. The plates were enumerated, recorded and log kill determined for each time point.
The following study controls were conducted: culture purity, neutralizer sterility, initial suspension population, test population, neutralization verification and a negative control using isopropanol. Culture purity was verified by performing a streak plate for isolated colonies of each culture used. All cultures were determined to be pure based on consistent colony morphology typical for the test organism. The neutralizer sterility was confirmed by no growth in an incubated sample. […]

[2] = system: Campylobacter jejuni (ATCC 29428); assay: Preservative effectiveness on food pathogens (US Pharmacopoeia 23); assay type: cell-based
Experimental: The effectiveness of 9-decenoic acid on food pathogens was determined using the protocol on preservative effectiveness found in the US Pharmacopoeia 23, 1995.
Stock cultures of the Listeria monocytogenes (ATCC 1911-1), Salmonella enteritidis (ATCC 13076) and Campylobacter jejuni (ATCC 29428) were transferred for at least three consecutives days on Trypticase Soy Agar (TSA) and incubated at 30-35° C. for 18-24 hours. On the day of the test, the cells were washed from the agar surface with sterile saline containing 0.05% w/v Polysorbate 80 (SS+) and the suspension was centrifuged at 2000 rpm for 15 minutes and resuspended in SS+. The suspension was diluted to approximately 10^8 CFU/ml.
[…] The samples were dispensed in 20 ml aliquots in sterile test tubes. For each concentration tested, a 0.1 ml aliquot of each inoculum was added to a final concentration of 10^5 to 10^6 CFU/ml. The tubes were incubated at room temperature and sampled on days 0, 1, 2, 4, 7, 14, 21 and 28.
At each sample point, 1.0 ml aliquots were withdrawn, serially diluted and plated in triplicate on TSA. The plates were incubated at 30-35° C. for 2-4 days. The colonies were counted and the average CFU/ml was calculated. Controls for purity, viability and sterility were performed as described previously.
According to the US Pharmacopoeia, a test compound is an effective preservative if the concentrations of viable bacteria remain at or below the initial concentrations during the first fourteen days and after 28 days.
Additionally, test organisms in Tables 9-11 were exposed to the 9-decenoic acid for several minutes before analysis at Day 0. As shown in the Tables 9-11, significant biocidal activity was observed even within this short time period for the test organisms, illustrating the effectiveness of 9-decenoic acid as a biocidal agent.

C=CCCCCCCCC(=O)O [9-decenoic acid]
0.67 log: Log reduction ([2]; 0.0078% 9-decenoic acid, exposure day 1)
≤ 0.0078%: Concentration at which effective preservative ([2]; US Pharmacopoeia definition, 28 days)
2 days: Exposure time at which bactericidal ([2]; at 0.0078%)
1.0 log: Log reduction ([1]; 0.01% 9-decenoic acid, pH 4.4, exposure 0.5 min)
>6.7 log: Log reduction ([1]; 0.01% 9-decenoic acid, pH 4.4, exposure 5 min) | Log reduction ([1]; 0.01% 9-decenoic acid, pH 4.4, exposure 7 min) | Log reduction ([1]; 0.01% 9-decenoic acid, pH 4.4, exposure 10 min) | Log reduction ([1]; 0.05% 9-decenoic acid, pH 4.1, exposure 0.5 min) | Log reduction ([1]; 0.05% 9-decenoic acid, pH 4.1, exposure 2 min) | Log reduction ([1]; 0.05% 9-decenoic acid, pH 4.1, exposure 5 min) | Log reduction ([1]; 0.05% 9-decenoic acid, pH 4.1, exposure 7 min) | Log reduction ([1]; 0.05% 9-decenoic acid, pH 4.1, exposure 10 min) | Log reduction ([1]; 0.1% 9-decenoic acid, pH 4.1, exposure 0.5 min) | Log reduction ([1]; 0.1% 9-decenoic acid, pH 4.1, exposure 2 min) | Log reduction ([1]; 0.1% 9-decenoic acid, pH 4.1, exposure 5 min) | Log reduction ([1]; 0.1% 9-decenoic acid, pH 4.1, exposure 7 min) | Log reduction ([1]; 0.1% 9-decenoic acid, pH 4.1, exposure 10 min)
2.9 log: Log reduction ([1]; 0.01% 9-decenoic acid, pH 4.4, exposure 2 min)
0 log: Log reduction ([2]; 0.0078% 9-decenoic acid, exposure day 0)
2.8 log: Log reduction ([2]; 0.015% 9-decenoic acid, exposure day 0)
0 days: Exposure time at which bactericidal ([2]; for 0.003%)
5.1 log: Log reduction ([2]; 0.0078% 9-decenoic acid, exposure day 2) | Log reduction ([2]; 0.0078% 9-decenoic acid, exposure day 4) | Log reduction ([2]; 0.0078% 9-decenoic acid, exposure day 7) | Log reduction ([2]; 0.0078% 9-decenoic acid, exposure day 14) | Log reduction ([2]; 0.0078% 9-decenoic acid, exposure day 21) | Log reduction ([2]; 0.0078% 9-decenoic acid, exposure day 28) | Log reduction ([2]; 0.015% 9-decenoic acid, exposure day 1) | Log reduction ([2]; 0.015% 9-decenoic acid, exposure day 2) | Log reduction ([2]; 0.015% 9-decenoic acid, exposure day 4) | Log reduction ([2]; 0.015% 9-decenoic acid, exposure day 7) | Log reduction ([2]; 0.015% 9-decenoic acid, exposure day 14) | Log reduction ([2]; 0.015% 9-decenoic acid, exposure day 21) | Log reduction ([2]; 0.015% 9-decenoic acid, exposure day 28) | Log reduction ([2]; 0.03% 9-decenoic acid, exposure day 0) | Log reduction ([2]; 0.03% 9-decenoic acid, exposure day 1) | Log reduction ([2]; 0.03% 9-decenoic acid, exposure day 2) | Log reduction ([2]; 0.03% 9-decenoic acid, exposure day 4) | Log reduction ([2]; 0.03% 9-decenoic acid, exposure day 7) | Log reduction ([2]; 0.03% 9-decenoic acid, exposure day 14) | Log reduction ([2]; 0.03% 9-decenoic acid, exposure day 21) | Log reduction ([2]; 0.03% 9-decenoic acid, exposure day 28)
1 days: Exposure time at which bactericidal ([2]; at 0.0015%)
